One block for each compound: values may come before it.
Legend:
Format in all cases: in vivo, mouse (male Balb/c)
lacrimal gland = assay: Tear fluid secretion during subcutaneous continuous administration (osmotic pump); conditions: mice; for Tear fluid: AUC of secreted amount
Protocol: (§1) Male Balb/c mice were used in the test.
(§2) The compound A was dissolved in physiological saline to a concentration of 0.625, 1.25, 2.5, 5.0, 10 or 20 mg/200 μl, and filled each pump (Alzet mini-osmotic pump 2001D, 8 μl/h, 1 day; DURECT Corporation) with about 200 μl portions It means, that is, each pump releases at a rate of 0.025, 0.05, 0.1, 0.2, 0.4 or 0.8 mg compound A/h, respectively. About 5 mm of dorsal epidermis of a mouse anesthetized with diethyl ether was incised, the osmotic pump already filled with the compound A was subcutaneously implanted, and then the skin was stitched. Secreted amounts of salivary and tear fluid and sweating were periodically measured from just before the implantation of pump until 32 hours after the administration. The ornithine decarboxylase activity was measured 10 hours after the implantation.
Pilocarpine was dissolved in physiological saline to a concentration of 0.039, 0.078, 0.16 or 0.31 mg/200 μl, or cevimeline to a concentration of 0.16, 0.31, 0.63 or 1.3 mg/200 μl, and filled the osmotic pump (Alzet mini-osmotic pump 2001 D, 8 μl/h, 1 day; DURECT Corporation) with about 200 μl portions. It means, that is, each pump releases at a rate of 0.00156, 0.00312, 0.0064 or 0.0124 mg/h (pilocarpine) or 0.0064, 0.0124, 0.0252 or 0.05 mg/h (cevimeline). About 5 mm of dorsal epidermis of a mouse anesthetized with diethyl ether was incised, the osmotic pump already filled with pilocarpine or cevimeline was subcutaneously implanted, and then the skin was stitched. Secreted amounts of salivary and tear fluid and sweating were periodically measured from just before the implantation of pump until 32 hours after the administration. The ornithine decarboxylase activity was measured 10 hours after the implantation.
The mouth of a mouse was wiped with a cotton ball whose weight had been measured in advance, and the incremental weight was used as the amount of salivary fluid. Also at the same time, a thread for tear fluid measurement (Zone Quick; Menicon) used on the Schirmer test was inserted into the lower eyelid conjunctival sac, and the length of colored part was measured and used as the amount of tear fluid. From the measurement results, area under the secreted amount-versus-time curve (AUC) was calculated.
(§3) All of the test results were expressed as fold increases of the reactions of the drug-administered group versus those of the vehicle-administered group, and comparison between the drug-administered groups and the vehicle-administered group was carried out using Dunnett's t-test. P<0.05 was considered significant. Results

[1] = tested on: ornithine decarboxylase (ODC) activity of parotid salivary gland; assay: Ornithine decarboxylase activity of parotid salivary gland after subcutaneous bolus administration; conditions: mice
Protocol: Male Balb/c mice were used in the test. […] Also, the growth acceleration action was measured 6 hours after the administration. […] Also, the growth acceleration action was measured 6 hours after the administration. […] Thus, it can be easily analogized that the ODC activity becomes a useful index of cell growth and function of the exocrine gland. Accordingly, the ability of each drug to activate glandular tissue was evaluated by measuring ODC activity of parotid salivary gland and extra-orbital lacrimal gland. The amount of ^14CO2 formed from L-^14C-ornithine was used as the index of ODC activity. A mouse anesthetized with diethyl ether was sacrificed by bleeding, and left and right parotid salivary glands and extra-orbital lacrimal glands were isolated. After removing the attached connective tissue and fat, the isolated glandular tissues homogenized in 1.5 ml of a homogenate buffer (25 mM Tris-HCl buffer (pH 7.4) containing 0.1 mM ethylenediaminetetraacetic acid, 0.4 mM pyridoxal phosphate, 5 mM dithiothreitol and 0.1% Brij 35®) using a Potter type homogenizer and then centrifuged at 4° C., 15,000 g for 30 minutes, and the supernatant was used as the enzyme fraction. […] The ^14CO2 generated by the reaction was captured by 150 μl of 1 N NaOH soaked in a glass filter. Radioactivity of the ^14CO2 captured on the glass filter was detected using a liquid scintillation counter. The enzyme activity (pmol ^14CO2/mg protein/hour) was calculated from the measured results. All of the test results were expressed as fold increases of the reactions of the drug-administered group versus those of the vehicle-administered group, and comparison between the drug-administered groups and the vehicle-administered group was carried out using Dunnett's t-test. P<0.05 was considered significant. Results

sweat gland = assay: Sweating (activated sweat glands, AUC) during subcutaneous continuous administration (osmotic pump); conditions: for sweating: AUC of activated sweat glands
Protocol: as §1
as §2, with “implantation. […]” for “implantation.”
The footpad of right hind paw of a mouse anesthetized with diethyl ether was wiped with absorbent cotton, and then 20 μl of each of 5 mg/ml iodine-ethanol solution and 50 mg/ml starch-mineral oil suspension was applied thereto. The number of black spots on footpad was counted and used as the number of activated sweat glands. In the case of the subcutaneous bolus administration test, the number of activated sweat glands 10 minutes after the administration of compound A was measured. In the case of the subcutaneous continuous administration, area under the number of activated sweat glands-versus-time curve (AUC) was calculated.
as §3

[2] = s.c. osmotic pump 0.16 mg (0.0064 mg/h)
[3] = s.c. osmotic pump 0.31 mg (0.0124 mg/h)
[4] = male, Balb/c, mouse, in vivo, sc
[5] = mice, s.c. continuous administration

dose at which sweating acceleration action was found (sweat gland; [4]): 0.31 mg
SMILES: CC[C@@H]1C(=O)OC[C@@H]1Cc1cncn1C [pilocarpine]
Tear fluid (lacrimal gland; s.c. osmotic pump 0.039 mg (0.00156 mg/h)): 0.81 ± 0.02 fold increase vs. vehicle group
Tear fluid (lacrimal gland; s.c. osmotic pump 0.078 mg (0.00312 mg/h)): 1.1 ± 0.13 fold increase vs. vehicle group
Tear fluid (lacrimal gland; [2]): 1.1 ± 0.14 fold increase vs. vehicle group
Tear fluid (lacrimal gland; [3]): 1.1 ± 0.12 fold increase vs. vehicle group
Glandular cell growth Salivary gland ([1]; s.c. bolus 1 mg/kg, ODC activity 6 hours after administration): 1.4 ± 0.48 fold increase vs. the vehicle group
Glandular cell growth Salivary gland ([1]; s.c. bolus 3 mg/kg, ODC activity 6 hours after administration): 1.3 ± 0.54 fold increase vs. the vehicle group
Glandular cell growth Salivary gland ([1]; s.c. bolus 10 mg/kg, ODC activity 6 hours after administration (Table 3)): 3.2 ± 1.1 fold increase vs. the vehicle group

dose at which sweating acceleration action was found (sweat gland; [4]): 1.25 mg
sweating acceleration dose relative to dose for secretion acceleration (sweat gland; [4]): 2 times
SMILES: CC1OC2(CS1)CN1CCC2CC1 (stereo not drawn) [cevimeline]
Tear fluid (lacrimal gland; [2]): 1.3 ± 0.05 fold increase vs. the solvent group
Tear fluid (lacrimal gland; [3]): 1.1 ± 0.09 fold increase vs. the solvent group
Tear fluid (lacrimal gland; s.c. osmotic pump 0.63 mg (0.0252 mg/h)): 1.4 ± 0.18 fold increase vs. the solvent group
Tear fluid (lacrimal gland; s.c. osmotic pump 1.25 (0.05 mg/h)): 1.3 ± 0.04 fold increase vs. the solvent group
Glandular cell growth Salivary gland ([1]; s.c. bolus 10 mg/kg, ODC activity 6 hours after administration (Table 4)): 1.7 ± 065 fold increase vs. the vehicle group
Glandular cell growth Salivary gland ([1]; s.c. bolus 30 mg/kg, ODC activity 6 hours after administration (Table 4)): 1.1 ± 0.33 fold increase vs. the vehicle group
Glandular cell growth Salivary gland ([1]; s.c. bolus 100 mg/kg, ODC activity 6 hours after administration (Table 4)): 1.1 ± 0.33 fold increase vs. the vehicle group

SMILES: C=C1CC2(CCN(C)CC2)O[C@H]1C [compound A, (−)-(S)-2,8-dimethyl-3-methylene-1-oxa-8-azaspiro[4.5]decane]
dose at which tear fluid secretion acceleration action reached maximum (lacrimal gland; s.c. continuous administration): 5 mg
dose showing statistically significant tear fluid secretion acceleration (lacrimal gland; s.c. continuous administration, cumulative quantity vs vehicle group): ≥ 2.5 mg
Tear fluid (lacrimal gland; s.c. osmotic pump 0.63 mg (0.025 mg/h)): 1.3 ± 0.11 fold increase vs. the vehicle group
Tear fluid (lacrimal gland; s.c. osmotic pump 1.25 mg (0.05 mg/h)): 1.3 ± 0.011 fold increase vs. the vehicle group
Tear fluid (lacrimal gland; s.c. osmotic pump 2.5 mg (0.1 mg/h)): 1.9 ± 0.10 fold increase vs. the vehicle group
Tear fluid (lacrimal gland; s.c. osmotic pump 5 mg (0.2 mg/h)): 2.3 ± 0.08 fold increase vs. the vehicle group
Tear fluid (lacrimal gland; s.c. osmotic pump 10 mg (0.4 mg/h)): 1.6 ± 0.08 fold increase vs. the vehicle group
Glandular cell growth Salivary gland ([1]; s.c. bolus 10 mg/kg, ODC activity 6 hours after administration): 0.71 ± 0.05 fold increase vs. the vehicle group
Glandular cell growth Salivary gland ([1]; s.c. bolus 30 mg/kg, ODC activity 6 hours after administration): 0.72 ± 0.11 fold increase vs. the vehicle group
Glandular cell growth Salivary gland ([1]; s.c. bolus 100 mg/kg, ODC activity 6 hours after administration): 2.8 ± 0.72 fold increase vs. the vehicle group
dose at which sweating acceleration action was found (sweat gland; [5]): 20 mg
sweating acceleration dose relative to dose for secretion acceleration (sweat gland; [5]): 8 times
dose up to which sweating acceleration action was not found (sweat gland; mice, s.c. continuous administration, throughout the test period): 10 mg
sweating (sweat gland; mice, s.c. osmotic pump 0.63 mg (0.025 mg/h)): 0.85 ± 0.06 fold increase vs. the vehicle group
sweating (sweat gland; mice, s.c. osmotic pump 1.25 mg (0.05 mg/h)): 0.84 ± 0.06 fold increase vs. the vehicle group
sweating (sweat gland; mice, s.c. osmotic pump 2.5 mg (0.1 mg/h)): 0.89 ± 0.05 fold increase vs. the vehicle group
sweating (sweat gland; mice, s.c. osmotic pump 5 mg (0.2 mg/h)): 0.88 ± 0.05 fold increase vs. the vehicle group
sweating (sweat gland; mice, s.c. osmotic pump 10 mg (0.4 mg/h)): 0.90 ± 0.04 fold increase vs. the vehicle group
sweating (sweat gland; mice, s.c. osmotic pump 20 mg (0.8 mg/h)): 1.7 ± 0.07 fold increase vs. the vehicle group
